Key:
[1] = target: T1, HSP27 (Homo sapiens, UniProt P04792); assay: Capillary electrophoresis of heat-denatured citrate synthase protein precipitates; format: biochemical; details: for times higher activity than BVDU for the inhibition of the HSP27 protein / Efficacy compared with BVDU: 10 μmol/L vs 750 μmol/L BVDU; for times higher activity than BVDU for the inhibition of the HSP27 protein / Rel. quantity of protein prec. CS: 43° C. for 120 minutes; for Rel. quantity of protein prec. CS: 10 μmol/L; for BVDU equivalent dose: based on 100 mg BVDU
Method: Since the heat-denatured protein aggregates of the citrate synthase from Example 1 are not water-soluble, these can be separated completely from the supernatant by means of centrifugation at room temperature at 16,000×g, 10 min. By using capillary electrophoresis, the compositions of the separated precipitates can be shown and quantified. The relative quantity of protein of precipitated citrate synthase serves as a measure of the efficacy of the test substances.
In each case, 481 nmol/L HSP27 and 1.44 μmol/L citrate synthase in 40 mmol/L HEPES buffer, pH 7.4, were employed. The relative quantity of protein of the precipitated citrate synthase in each case was normalized using a defined quantity of BSA as internal standard. The relative quantity of protein that precipitated when using 750 μmol/L BVDU was set at 1. The other test substances (2 representatives of phenothiazine derivatives of general formula (V), 2 representatives of purine derivatives of formula (I) or (II)) were each employed at a concentration of 10 μmol/L.
Since the heat-denatured protein aggregates of the citrate synthase from Example 2 are not water-soluble, these can be separated completely from the supernatant by means of centrifugation at room temperature at 16,000×g, 10 min. By using capillary electrophoresis, the compositions of the separated precipitates can be shown and quantified. The relative quantity of protein of precipitated citrate synthase serves as a measure of the efficacy of the test substances.
In each case, 481 nM HSP27 and 1.44 μmol/L citrate synthase in 40 mmol/L HEPES buffer, pH 7.4, were employed. The relative quantity of protein of the precipitated citrate synthase in each case was normalized using a defined quantity of BSA as internal standard. The relative quantity of protein that precipitated when using 750 μmol/L BVDU was set at 1. The other test substances (2 representatives of phenothiazine derivatives of general formula (V), 2 representatives of thymine derivatives of formula (I) or (II)) were employed at a concentration of 10 μmol/L in each case.
Otherwise, the experiments were performed as described above: […]

[2] = tested on: RPMI-8226 cells; assay: Development of resistance to bortezomib in RPMI-8226 cells; format: cell-based
[3] = tested on: RPMI-8226 cells; assay: as above; format: cell-based; remark: listed apart in the source
Method: The cell line RPMI-8226 (DMSZ 402) is a “multiple myeloma” cell line and was chosen because bortezomib is employed as a standard therapy for multiple myeloma. RPMI-8226 cells respond to bortezomib, express HSP27 and develop resistance to Velcade. RPMI-8226 cells were seeded at a cell count of 100,000 cells/ml in each case and regularly passaged. […] In contrast, for RPMI 8226 cells that were treated with 30 μmol/L BVDU, a final cell count of 160,000 cells/ml was detected whereas the final cell count for the culture without the addition of an HSP27 inhibitor amounted to 350,000 cells/ml. As a control, RPMI 8226 cells were treated with the respective test substances alone, FIG. 4b.

[4] = target: T1, HSP27; assay: Spectrophotometric protein aggregation assay (citrate synthase, HSP27 chaperone function); format: biochemical; details: for effect on chaperone function of HSP27 (CS aggregation) relative to 750 μmol/L BVDU: 43° C., 500 nm
Method: FIG. 1: a spectrophotometric protein aggregation assay at 43° C., a wavelength of 500 nm and a concentrations of the proteins: 1.44 μmol/L citrate synthase (CS), 481 nmol/L HSP27 (HSP) in a 40 mmol/L HEPES buffer (pH 7.4) during treatment with 14 or 28 μmol/L 2-(3-trichlorovinylphenylamino)-1,9-dihydropurin-6-one (CS+HSP+test substance no. 2), with 750 μmol/L BVDU (CS+HSP+BVDU) and without (CS+HSP; reference);
To measure the efficacy of the purine derivatives according to the invention, robust experiments for the chaperone function of the HSP27 protein were performed:
A known client protein (=substrate on which HSP27 acts as a chaperone) of HSP27 is citrate synthase. Citrate synthase is denatured when the temperature increases to 43° C. This heat denaturation is prevented or delayed by the presence of HSP27 [Jakob U, 1993]. By adding the novel active ingredients, their efficacy can thus be measured through the inhibition of the HSP27 chaperone function.
To determine the activity (i.e. the effect on the aggregation behaviour of the citrate synthase (CS) after thermal incubation) of 2-(3-trichlorovinylphenylamino)-1,9-dihydropurin-6-one in comparison to BVDU, four different batches containing 1.44 μmol/L CS, 481 nmol/L HSP27 (HSP) in a 40 mmol/L HEPES buffer (pH 7.4) were prepared and BVDU (750 μmol/L) or various concentrations of 2-(3-trichlorovinylphenylamino)-1,9-dihydropurin-6-one (14 μmol/L; 28 μmol/L) were added. The samples were then incubated at 43° C. and the aggregation behaviour of the CS was […] in a spectrometer (PerkinElmer LS55, PerkinElmer Inc.) at a wavelength of 500 nm.
It can be seen from FIG. 1 that the protein citrate synthase (graph CS alone) is denatured by increasing the temperature to 43° C. and forms aggregates. The aggregation is measured in the spectrometer at 500 nm (light scattering by protein aggregates). The presence of HSP27 (HSP) counteracts the aggregation (cf. graph, CS+HSP). Since the addition of the test substances (BVDU and 2-(3-trichlorovinylphenylamino)-1,9-dihydropurin-6-one) inhibits the chaperone function of HSP27, the activity of the respective test substance can be determined by measuring the aggregation behaviour of the CS.

[5] = tested on: U937 cells; assay: Development of resistance to bortezomib in U937 cells; format: cell-based; details: bortezomib 0.1-0.5 ng/ml + 0.75 μmol/L test substance (FIG. 11a)
Method: For this purpose, U937 cells (histiocytic lymphoma) were cultured in DMEM culture medium (+10% FCS) at 37° C., 5% CO2 in an H2O-saturated atmosphere. 100,000 cells/ml were seeded and incubated with the cytostatic agent bortezomib (0.1 ng/ml) and the respective test substance (dosage in the current experiment: 1 μM/L acepromazine). The reference substance, BVDU, was employed at a concentration of 30 μM/L. The cells were in each case passaged before the cell count reached 1,000,000 cells/ml. At each passage, 100,000 cells/ml were again seeded and the dose of the cytostatic agent bortezomib was increased stepwise (0.1 ng/mL or 0.05 ng/mL). The concentration of the test substances remained constant. As a result of the stepwise increase in the dosage of the cytostatic agent, resistance developed in the U937 cells. The development of resistance is prevented or inhibited in the case of a positively tested HSP27 inhibitor. The experiments from Example 6 were repeated in the same way, wherein U937 cells (histiocytic lymphoma) are cultured in DMEM culture medium (+10% FCS) at 37° C., 5% CO2 in an H2O-saturated atmosphere. 100,000 cells/ml were seeded and incubated with an initial concentration of 0.2 ng/ml of the cytostatic agent bortezomib and both without an inhibitor and with acepromazine as an HSP27 inhibitor at a concentration of 1 μM/L. The reference substance, BVDU, was employed at a concentration of 30 μM/L. The cells were passaged in each case before the cell count reached 1,000,000 cells/ml. At each passage, 100,000 cells/ml were again seeded and the dose of the cytostatic agent bortezomib was increased stepwise by 0.1 ng/mL. The concentration of the test substance and the reference substance remained constant. As a result of the stepwise increase in the dosage of the cytostatic agent, resistance developed in the U937 cells. The development of resistance is prevented or inhibited in the case of a positively tested HSP27 inhibitor. The cell line U-937 is a histiocytic lymphoma (DSMZ ACC 5). This cell line also responds to treatment with bortezomib, expresses HSP27 and develops resistance to bortezomib. Bortezomib is not the standard therapy for this lymphoma, but is being discussed as a possible therapeutic agent. U-937 cells were seeded with a cell count of 100,000 cells/ml in each case and regularly passaged. […] At the end of the experiment, 70,000 living cells per ml medium could be detected. For the treatment with 30 μmol/L BVDU, a final cell count of 250,000 cells/ml was detected whereas the final cell count in the culture without the addition of an HSP27 inhibitor amounted to 450,000 cells/ml. As a control, U-937 cells were treated with the respective test substances alone, FIG. 10b.

[6] = 43° C. for 120 minutes (Table 1)
[7] = relative to 750 μmol/L BVDU = 1 (Table 1)
[8] = 43° C. for 120 minutes (Table 2)
[9] = relative to 750 μmol/L BVDU = 1 (Table 2)

T1 sequence (P04792 whole entry): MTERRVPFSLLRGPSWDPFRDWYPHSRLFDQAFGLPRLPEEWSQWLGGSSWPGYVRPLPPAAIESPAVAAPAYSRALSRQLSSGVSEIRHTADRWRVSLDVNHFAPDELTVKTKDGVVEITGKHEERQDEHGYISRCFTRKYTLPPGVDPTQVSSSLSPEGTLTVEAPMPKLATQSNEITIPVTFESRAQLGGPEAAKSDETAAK

SMILES | times higher activity than BVDU for the inhibition of the HSP27 protein [1] [times] | Efficacy compared with BVDU [1, 6] [x] | Rel. quantity of protein prec. CS [1, 7] | BVDU equivalent dose [1] | living cells at the end of the experiment ([2]; bortezomib 0.1-0.3 ng/ml + 1 μmol/L test substance (FIG. 7a), without HSP27 inhibitor 950,000 cells/ml) | development of resistance to the cytostatic agent bortezomib ([3]; bortezomib 0.1-0.3 ng/ml + 1 μmol/L test substance (FIG. 7a)) | effect on chaperone function of HSP27 (CS aggregation) relative to 750 μmol/L BVDU ([4]; 14 μmol/L) | effect on chaperone function of HSP27 (CS aggregation) relative to 750 μmol/L BVDU ([4]; 28 μmol/L) | BVDU equivalent dose ([4]; based on 100 mg BVDU) | development of resistance to the cytostatic agent bortezomib ([2]; bortezomib 0.1-0.3 ng/ml + 1 μM/L test substance (FIG. 6a)) | living cells at the end of the experiment ([2]; bortezomib 0.1-0.3 ng/ml + 1 μM/L test substance (FIG. 6a), without HSP27 inhibitor 950,000 cells/ml) | development of resistance to the cytostatic agent bortezomib [5] | living cells at the end of the experiment ([5]; without HSP27 inhibitor 450,000 cells/ml) | Efficacy compared with BVDU [1, 8] [x] | Rel. quantity of protein prec. CS [1, 9] | development of resistance to the cytostatic agent bortezomib ([2]; bortezomib 0.075-0.275 ng/ml + 1 μmol/L test substance (FIG. 9a)) | living cells at the end of the experiment ([2]; bortezomib 0.075-0.275 ng/ml + 1 μmol/L test substance (FIG. 9a), without HSP27 inhibitor 510,000 cells/ml) | living cells at the end of the experiment ([2]; bortezomib 0.075-0.275 ng/ml + 1 μmol/L test substance (FIG. 8a), without HSP27 inhibitor 510,000 cells/ml) | development of resistance to the cytostatic agent bortezomib ([3]; bortezomib 0.075-0.275 ng/ml + 1 μmol/L test substance (FIG. 8a))
O=c1[nH]c(Nc2cccc(C(Cl)=C(Cl)Cl)c2)nc2[nH]cnc12 [2-(3-trichlorovinylphenylamino)-1,9-dihydropurin-6-one] | 53 | 53.25 | 0.71 | less than 1.9 mg | 270,000 living cells per ml medium | significantly inhibited | comparable effect | significantly more pronounced effect | less than 1.9 mg | – | – | – | – | – | – | – | – | – | –
CCCCc1ccc(Nc2nc3c(ncn3COCCO)c(=O)[nH]2)cc1 [2-(4-butylphenylamino)-9-(2-hydroxyethoxymethyl)-1,9-dihydropurin-6-one] | 69 | 69.0 | 0.92 | 1.4 mg | – | – | – | – | – | significantly inhibited | 240,000 living cells per ml medium | significantly inhibited | 30,000 living cells per ml medium | – | – | – | – | – | –
Cc1cn(CC=CCNC(=O)Cc2ccc(-c3ccccc3)cc2)c(=O)[nH]c1=O [2-biphenyl-4-yl-N-[4-(5-methyl-2,4-dioxo-3,4-dihydro-2H-pyrimidin-1-yl)-but-2-enyl]-acetamide] | 61 | – | – | 1.6 mg | – | – | – | – | – | – | – | – | – | 60.75 | 0.81 | significantly inhibited | 380,000 living cells per ml medium | – | –
Cc1cn(CC=CCNC(=O)C2c3ccccc3Oc3ccccc32)c(=O)[nH]c1=O [9H-xanthene-9-carboxylic acid [4-(5-methyl-2,4-dioxo-3,4-dihydro-2H-pyrimidin-1-yl)-but-2-enyl]amide] | 49 | – | – | less than 2 mg | – | – | – | – | – | – | – | – | – | 48.75 | 0.65 | – | – | 290,000 living cells per ml medium | significantly inhibited

— US10940150B2, “Thymine derivatives and quinazoline-dione derivatives for the inhibition of HSP27” (TECHNISCHE UNIVERSITAET DRESDEN, priority 2014, dated 2021)
